Assay results taken from US4442300A, “Therapeutically active compounds” (Aktiebolaget Draco, priority 1980, dated 1984).
“And” between values parts separate entries of the source, which are not always exact repeats. Identical values can stand only once. “Also recorded” adds a separate entry of the source. Like-named read-outs stand apart in the source and are kept apart here.

Columns and labels:
[1] = test system: isolated tracheal muscle; assay: Bronchodilating effect in vitro on isolated guinea-pig trachea (test C1); details: for Potentiating or inhibiting effect on the bronchodilating effect of terbutaline: 5 min pretreatment with test compound; for EC50: Cavia porcellus; for blockade of the bronchodilating effect by propranolol: propranolol 3.10^-6 mol/l (concentration given for I and II)
Procedure: The trachea from guinea-pigs was dissected out, cut spirally and transferred to a 10 ml organ bath containing Krebs solution of 37° and aerated with carbogen. The tracheal strip was contracted by pilocarpine (4.10^-6 mol/l) producing a tension of about 1.5 g. Isometric recording was made by use of a transducer FTO3 and a Grass polygraph 7D. Before the administration of the test compound the esterase inhibitor eserin was added to the bath in a concentration of 1.10^-6 mol/l. The concentration of the test substances which produces 50% relaxation (EC50) of the pilocarpine contracted trachea was recorded as well as potentiating or inhibiting influence of the test substances of the invention on the relaxing effect of terbutaline. In this last mentioned test the muscle preparation was pretreated with the test compounds during 5 minutes, before the response of terbutaline was recorded.

[2] = test system: histamine evoked rise of the insufflation pressure; assay: Duration of bronchospasmolytic activity after local administration via aerosol, histamine-induced bronchoconstriction (test B); assay type: in vivo, Guinea-pigs, strain Dunkin-Hartley
Procedure: Guinea-pigs, strain Dunkin-Hartley, of either sex, weighing 500-900 g were anaesthetized by i.p. injection and i.v. infusion of pentobarbital. The animals were artifically ventilated with a Braun constant volume respiration pump giving 70 strokes/min and a stroke volume of 0.75 ml/100 g body weight. Intratracheal pressure (insufflation pressure) was measured by use of a T-junction on the tracheal cannula connected to a Statham pressure transducer P23BC. An increase in intratracheal pressure, indicating bronchoconstriction, was elicited by i.v. injection (v. jugularis) of histamine. The constricting agent was injected every 10 minutes by a timer-controlled perfusor in a dose giving about 80% of the maximum contractile response (1-2.10^-8 mol/kg). The bronchospasmolytic drugs to be tested were solved in aq. dest. containing 3% glycerol and nebulized by use of a Bird Inline Nebulizer (air pressure 0.2 MPa; droplet spectrum around 1 micron). The generated aerosol was lead through the respirator and tracheal cannula. Inhalation of drug was going on during periods of 30 min. The resulting bronchodilator effect was calculated from the percentage reduction of the histamine evoked rise of the insufflation pressure.
The concentration of the test substance in the solved composition that when nebulized produced 50% inhibition of the increased tracheal pressure (ED50) was measured. […]

[3] = test system: histamine-induced bronchospasm; assay: Protecting effect against histamine-induced bronchospasm after oral administration (test C2); assay type: in vivo, guinea-pigs, Dunkin-Hartley strain; details: for ED50: Cavia porcellus, 0.05 h, histamine aerosol, read-out: Dose protecting 50% of the test animals for more than 3 minutes (ED50)
Procedure: Male guinea-pigs, Dunkin-Hartley strain, 150-200 g, were used in the study. The animals were starved for about 15 hours (water ad libitum) before the administration, by a stomach tube, of test compound or vehicle (controls). To establish an adequate time period between administration and histamine exposure, the maximum plasma level of terbutaline produced from the hydrolysis of the given pro-drugs of terbutaline was determined. Thus, blood samples (in pre-experimental series) were collected from guinea-pigs at different times after the administration of the test compound and the plasma level of terbutaline was determined by a massfragmentographic assay. A peak in the plasma terbutaline was noted 50-60 minutes after the administration, and this time was selected as time for start of histamine exposure.
The histamine aerosol was generated by Bird inline nebulizers from a solution containing 0.02% histamine-HCl and 3% glycerole. The protecting effect was estimated from the delay in appeareance of signs of anoxia in drug-treated animals. […] Drug-treated guinea-pigs without any signs of respiratory influence from the histamine during these first 3 minutes were denoted as protected.

[4] = test system: heart rate; assay: In vivo effect of the test compounds on the heart rate in dogs (test D2); parameters: species or system dog (Beagle); details: oral; for Slope of line, increase in heart rate vs. logarithm of corresponding serum conc.: terbutaline 0.01-0.1 mg/kg, compound I 0.3-2.7 mg/kg
Procedure: (§1) Five dogs (Beagle, .male., 13-18 kg) have been used repeatedly in the study. Each dog was used at most once a week. Food was withheld from the animals the night before the experiment (water ad libitum). The test compound was solved or suspended in 8 ml of distilled water, and delivered into the back of the mouth by use of a syringe and a short tube. This oral supply was followed by a water rinse of 8 ml.
The blood was collected from the cephalic veins in the forelegs by use of evacuated tubes. The esterase inhibitor diisopropylfluophosphate (DFP) was added, the samples centrifugated (+5°) and the amount of terbutaline in plasma determined by a massfragmentographic analysis method. The serum level of terbutaline indicates the degree of bronchospasmolytic effect of the test compounds, provided terbutaline is solely responsible for the bronchospasmolytic effect. This method does, however, not measure the intrinsic activity of the test compounds.
(§2) The amounts of the test substances to be administered were selected so that the level of terbutaline, when administered per se, corresponds to the serum levels obtained and found effective in patients at clinical use, that is a level of terbutaline of at least 2 ng/ml serum for 6 to 8 hours. The doses of the test substances of the invention were selected so that the serum levels of terbutaline obtained would correspond approximately with the serum levels obtained after administration of terbutaline per se.
The heart rate was determined by a stethoscope (the mean of three determinations during a 5-minute periode) before the administration of drug and before each blood sampling.
The relative effect of the test compounds on the heart rate of the test animals was illustrated by plotting in a diagram the increase in heart rate measured at a certain serum concentration of terbutaline versus the logarithm of the said terbutaline concentration in serum. Only values before and up to the maximal increase in heart rate were used. This method will produce a graph consisting of a substantially straight line. […]

[5] = test system: isolated auricles from guinea-pig heart; assay: In vitro test on isolated guinea-pig auricles (test D1); parameters: species or system strain Dunkin Hartley; details: for Emax: Cavia porcellus; for any chronotropic or inotropic effect: isolated auricles, in words; for potentiating or inhibiting effect on the chronotropic and inotropic effect of terbutaline: same concentration as terbutaline
Procedure: Male guinea-pigs strain Dunkin Hartley (400-500 g) were used. After bleeding and removal of the heart the auricles were dissected free from the ventricular part and submerged into carbogen aerated Krebs solution of 37°. The frequency and force of the spontaneously beating preparation was recorded by a Grass transducer FTO3. In the polygraph (Grass 7D) the signals from the isometric transducer passed a trigger function from the drive amplifier to the tachograph to record the rate.
The esterase inhibitor eserine was added to a concentration of 1.10^-6 mol/l in the organ bath before the drugs to be tested were added. The intrinsic activity of the test compounds on the heart preparation, that is their effect on heart rate (chronotropic effect) and their effect on the force of the heart beats (inotropic effect), and their possible interaction with terbutaline was studied.

[6] = Duration of serum levels of terbutaline after oral administration to unanaesthetized dogs (test A); assay type: in vivo, dog (Beagle); details: p.o., >= 2 ng/ml serum
Procedure: A. Duration of serum levels of terbutaline after administration of compounds of the invention to unanaesthetized dogs
as §1
The blood was collected from the cephalic veins in the forelegs by use of evacuated tubes. The esterase inhibitor diisopropylfluophosphate (DFP) was added, the samples centrifugated (+5°) and the most amount of terbutaline in plasma determined by a massfragmentographic analysis method.
as §2

[7] = cited from earlier work; for duration of bronchospasmolytic activity, in words: compared with terbutaline or salbutamol
[8] = isolated trachea, Table 3, read-out: concentration producing a bronchodilating effect
[9] = pilocarpine contracted trachea (4.10^-6 mol/l), eserin 1.10^-6 mol/l, read-out: Concentration of test substance producing 50% relaxation of trachea (EC50)
[10] = read-out: chromotropic effect on isolated auricle (relative values)
[11] = read-out: inotropic effect on isolated auricle (relative values)

Compound | Potentiating or inhibiting effect on the bronchodilating effect of terbutaline [1] | EC50 [1, 8] [nM] | EC50 [1, 9] [nM] | concentration range for bronchodilating effect relative to terbutaline ([1]; isolated trachea) | blockade of the bronchodilating effect by propranolol [1] | protection against histamine-induced bronchospasm on molar basis relative to terbutaline [3] | ED50 [3] | Slope of line, increase in heart rate vs. logarithm of corresponding serum conc. [4] | Emax [5, 10] [%] | Emax [5, 11] [%] | any chronotropic or inotropic effect [5] | potentiating or inhibiting effect on the chronotropic and inotropic effect of terbutaline [5] | duration of bronchospasmolytic activity, in words [7] | further results
CC(C)(C)NCC(O)c1cc(OC(=O)c2ccc(OC(=O)C(C)(C)C)cc2)cc(OC(=O)c2ccc(OC(=O)C(C)(C)C)cc2)c1 (stereo not drawn) [Compound I] | none and No potentiating or inhibiting activity | ~1800 | 1800 ± 600 | about 9 times higher | not blocked | about equally effective as terbutaline | 1.1 mg/kg and 1.6 µmol/kg | 0.53 | 0 | 0 | none | No potentiating or inhibiting effect | – | onset of effect [2]: comparable to that produced by terbutaline; duration of bronchospasmolytic effect compared with terbutaline ([2]; at ED50 dose level): about three times longer; increase in heart rate relative to terbutaline ([4]; dogs): relatively much lower; also recorded: considerably reduced; time with clinically useful serum level of terbutaline relative to terbutaline [6]: at least twice as long; time with a serum level of terbutaline of 2 ng/ml or more ([6]; listed as compound I): 16 h
CC(C)C(=O)Oc1ccc(C(=O)Oc2cc(OC(=O)c3ccc(OC(=O)C(C)C)cc3)cc(C(O)CNC(C)(C)C)c2)cc1 (stereo not drawn) [II] | none and No potentiating or inhibiting activity | ~1800 | 1800 ± 600 | about 9 times higher | not blocked | about equally effective as terbutaline | 1.1 mg/kg and 1.6 µmol/kg | – | 0 | 0 | none | No potentiating or inhibiting effect | – | –
Cc1ccc(C(=O)Oc2ccc(C(O)CNC(C)(C)C)cc2OC(=O)c2ccc(C)cc2)cc1 (stereo not drawn) [bitolterol] | – | – | – | – | – | – | – | – | – | – | – | – | comparable with that of salbutamol | –
CC(C)(C)NCC(O)c1ccc(O)c(CO)c1 (stereo not drawn) [salbutamol] | – | – | – | – | – | – | – | – | – | – | – | – | about equal to the duration of terbutaline | –
CC(C)(C)NCC(O)c1cc(O)cc(O)c1 (stereo not drawn) [terbutaline, reference compound] | – | – | – | – | blocked | – | – | 1.04 | 100 | 100 | – | – | – | serum concentration necessary for desired therapeutic activity ([7]; Hornblad et al.): at least 2 ng/ml
CC(C)(C)NCC(O)c1cc(OC(=O)c2ccc(OC(=O)C(C)(C)C)cc2)cc(OC(=O)c2ccc(OC(=O)C(C)(C)C)cc2)c1 (stereo not drawn) [test substance of the invention] | – | – | – | – | – | – | – | – | – | – | – | – | – | time with a serum level of terbutaline of 2 ng/ml or more [6]: about 16 hours
